Test results published in patent US11033559B2, “Leukocyte infiltration promoting agent and antitumor immunostimulatory agent” (OSAKA UNIVERSITY, priority 2015, dated 2021).

Experiments:
Type in all cases: in vivo
[1] = test system: LLC cells; assay: Antitumor effect of combined use of LPA and immune checkpoint inhibitor; conditions: LLC-bearing mice; LPA 3 mg/kg i.p. day 6 to day 20; anti-PD-1 antibody 100 μg/mouse i.p. on days 7, 9, 11, 14, 16, 18; volume until day 21
Procedure: LLC cells (1×10^6 cells in 100 μL PBS per animal) were subcutaneously injected into C57BL/6 NCrSlc mice aged 8 weeks (females) in the same manner as in Reference Example 1. On day 6 post-inoculation, LLC-bearing mice that had developed a tumor with a volume of 30 to 40 mm^3 (volume=length×width×height×0.5) were selected. The mice were divided into four groups: a control group, an LPA administration group, an anti-PD-1 antibody administration group and an LPA plus anti-PD-1 antibody administration group, and subjected to the experiment. To the LPA administration group and to the LPA plus anti-PD-1 antibody administration group, LPA (3 mg/kg/100 μL) was intraperitoneally administered consecutively from day 6 through day 20 post-inoculation of the tumor cells. In the anti-PD-1 antibody administration group and in the LPA plus anti-PD-1 antibody administration group, anti-PD-1antibody therapy was started from day 7 post-inoculation of the tumor cells. Specifically, an anti-mouse PD-1 antibody (Clone: RMP1-14, BioXcell, BE0146) was intraperitoneally administered at a dose of 100 μg/mouse on day 7, day 9, day 11, day 14, day 16 and day 18 post-inoculation of the tumor cells. […] Tumor volume was measured over time until day 21.

[2] = test system: LLC tumor in mice; assay: Changes in localization of immune cells in tumor (CD31, CD4, CD8 immunostaining); conditions: tumor sections of Reference Example 1, LLC-bearing mice, 3 mg/kg i.p. for five days
Procedure: LPA was administered to tumor-bearing mice generated by subcutaneous inoculation of a mouse cancer cell line, and changes in the localization of immune cells in the tumor were examined.
The tumor sections prepared in Reference Example 1 were immunostained with an anti-CD4 antibody and an anti-CD8 antibody. As a primary antibody, Purified Hamster Anti-PECAM-1 Antibody (Millipore), which is an anti-mouse CD31 antibody, PE-labeled Anti-mouse CD4 Antibody (Pharmingen) or FITC-labeled Anti-mouse CD8 Antibody (Pharmingen) was used. As a secondary antibody, Alexa Fluor 647-conjugated Anti-Armenian Hamster IgG was used. The immunostaining was performed in the same procedure as in Reference Example 1. The immunostained sections were observed and photographed under a confocal laser microscope (Leica).

[3] = test system: luminal surface of tumor blood vessels in LLC tumor-bearing mice; assay: Structural changes in lumina of tumor blood vessels (scanning electron microscopy); conditions: 3 mg/kg intraperitoneally, 24 hours after administration, scanning electron microscope
Procedure: LLC cells were subcutaneously inoculated into C57BL/6 NCrSlc mice aged 8 weeks (females, SLC, Inc.) in the same manner as in Reference Example 1. An LPA solution for administration was prepared in the same manner as in Reference Example 1. LLC-bearing mice on day 9 post-inoculation (animals with a tumor volume of 60 to 80 mm^3) were subjected to the experiment. The mice were divided into two groups: a control group and an LPA group (n=3 per group). After grouping, LPA (3 mg/kg/100 μL) or PBS (100 μL) was intraperitoneally administered to the mice. At 24 hours after LPA or PBS administration, the mice were fixed by perfusion with a fixative under anesthesia with pentobarbital (Kyoritsu Seiyaku Corporation). The fixative used was 0.1 M phosphate buffer (pH 7.4) containing 2% formaldehyde and 2.5% glutaraldehyde. After the fixation by perfusion, the tumors were harvested, immersed in the same fixative as used for perfusion, and shaken at 4° C. overnight. The tumors were further immersed in 0.1 M phosphate buffer (pH 7.4) containing 1% osmium tetroxide and 0.5% potassium ferrocyanide for fixation. The tumors were dehydrated in an ascending series of ethanol, then the alcohol was replaced with t-butyl alcohol, and the tumors were freeze-dried.

[4] = test system: LLC cells; assay: Tumor growth inhibition, subcutaneous tumor formed from LLC cells; conditions: LLC-bearing mice; LPA 3 mg/kg i.p. once daily for seven days; 5-FU 100 mg/kg i.p. once weekly, 2 times
Procedure: LLC cells (1×10^6 cells in 100 μL PBS per animal) were subcutaneously injected into C57BL/6 NCrSlc mice aged 8 weeks (females) in the same manner as in Reference Example 1. An LPA solution for administration was prepared in the same manner as in Reference Example 1. 5-FU (Kyowa Hakko Kirin Co., Ltd.) was used as an anticancer drug. 5-FU was prepared as a solution in physiological saline (Otsuka Pharmaceutical Co., Ltd.). On day 7 post-inoculation, LLC-bearing mice that had developed a tumor with a volume of 30 to 50 mm^3 were selected and subjected to the experiment. The mice were assigned to three groups: a control group, a 5-FU group and an LPA group (n=3 per group). After grouping, LPA (3 mg/kg/100 μL), 5-FU (100 mg/kg/100 μL) or PBS (100 μL) was intraperitoneally administered to the mice. The administration of LPA or PBS was performed once daily for consecutive seven days. The administration of 5-FU was performed once weekly, 2 times in total (day 7 and day 14 post-inoculation). Tumor size was measured over time after the start of the administration. Tumor volume was calculated by the following formula: length×width×height×0.5.

lysophosphatidic acid [LPA]
inhibition of tumor growth (tumor volume) versus control group [1]: slightly inhibited tumor growth | continuity of tumor blood vessels (anti-CD31 staining) [2]: blood vessels were continuous | localization of CD4-positive cells in the tumor [2]: CD4-positive cells were present even in the central part of the tumor | localization of CD8-positive cells in the tumor [2]: CD8-positive cells were present in the whole tumor region | luminal surface of tumor blood vessels [3]: very smooth luminal surface | inhibition of tumor growth (tumor volume) versus control group [4]: albeit to a slightly lesser extent, the LPA group also showed inhibition of tumor growth
